Results published in PubChem BioAssay (NCI).
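A five-concentration, 48-hour dose response in 96-well plates underlies each endpoint, interpolated linearly between surrounding concentrations. TGI: concentration producing complete growth inhibition.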 Where a SMILES comes first, the peptide text is derived from it. [ ]: non-standard residue; d: D form. The star is where a group is joined. Cbz = O=C(OCc1ccccc1)*; Boc = CC(C)(C)OC(=O)*; Aib = CC(C)(N)C(=O)O; OBn = c1ccc(CO*)cc1; OtBu = CC(C)(C)O*; βAla = NCCC(=O)O

Experiments:
Experiment in all cases: NCI anticancer screen, dose series, 48 h
NCI-H226 lung = tested on: NCI-H226 lung
MDA-N = tested on: MDA-N
MALME-3M melanoma = tested on: MALME-3M melanoma
T-47D breast = tested on: T-47D breast
SK-MEL-28 melanoma = tested on: SK-MEL-28 melanoma
SF-268 CNS = tested on: SF-268 CNS
MDA-MB-435 = tested on: MDA-MB-435
HCT-15 colon = tested on: HCT-15 colon
DU-145 prostate = tested on: DU-145 prostate
OVCAR-8 ovarian = tested on: OVCAR-8 ovarian

Row | SMILES | TGI (NCI-H226 lung) | TGI (MDA-N) | TGI (MALME-3M melanoma) | TGI (T-47D breast) | TGI (SK-MEL-28 melanoma) | TGI (SF-268 CNS) | TGI (MDA-MB-435) | TGI (HCT-15 colon) | TGI (DU-145 prostate) | TGI (OVCAR-8 ovarian)
1 | COC(=O)c1cncc2c1CC1C3(C(=O)OC)C=NC(C4C(CO)=CCC43)C21C (stereo not given) | > 100 µM | > 100 µM | > 100 µM | > 100 µM | > 100 µM | > 100 µM | > 100 µM | > 100 µM | > 100 µM | > 100 µM
2 | CCOC(=O)C(O)(NC(C)=O)C(F)(F)F (stereo not given) | > 100 µM | > 100 µM | > 100 µM | > 100 µM | > 100 µM | > 100 µM | > 100 µM | > 100 µM | > 100 µM | > 100 µM
3 | CCOC(=O)C1=C(C)NC(=S)NC1c1cccc(O)c1 (stereo not given) | > 100 µM | 39.3 µM | > 100 µM | > 100 µM | > 100 µM | > 100 µM | 38 µM | > 100 µM | > 100 µM | > 100 µM
4 | COc1cc(/C=C2/SC(c3ccccc3)N(c3cccc([N+](=O)[O-])c3)C2=O)cc(OC)c1OC (stereo not given) | > 100 µM | 78.6 µM | > 100 µM | > 100 µM | > 100 µM | > 100 µM | 86.4 µM | > 100 µM | > 100 µM | > 100 µM
5 | OC1OC(c2ccco2)C(F)(F)C(F)(F)C1(F)F (stereo not given) | > 100 µM | > 100 µM | > 100 µM | > 100 µM | > 100 µM | > 100 µM | > 100 µM | > 100 µM | > 100 µM | > 100 µM
6 | CCCCCCCCCCCCCCCCNc1nc(=O)n(C2CC(O)C(CO)O2)cc1F (stereo not given) | 10.8 µM | 72.1 µM | 22.8 µM | 25.3 µM | 28.4 µM | 22.3 µM | 24.6 µM | 26.1 µM | 21.6 µM | 23.9 µM
7 | O=C1C=CC(=O)c2ncccc21 | 32.4 µM | 16.1 µM | 9.78 µM | 5.18 µM | 11.2 µM | 27.1 µM | 18.5 µM | 5.72 µM | 20.4 µM | 26.5 µM
8 | CC1(C)[C@@H]2C[C@H]1c1cnc(-c3ccccn3)cc1C2[C@@H]1c2cc(-c3ccccn3)ncc2[C@@H]2C[C@H]1C2(C)C (stereo not given in full) | > 100 µM | > 100 µM | > 100 µM | > 100 µM | > 100 µM | > 100 µM | > 100 µM | > 100 µM | > 100 µM | > 100 µM
9 | CCCCSc1n/c(=C\c2ccc(N(C)C)cc2)c2nnnn12 | > 100 µM | > 100 µM | > 100 µM | > 100 µM | > 100 µM | > 100 µM | > 100 µM | > 100 µM | > 100 µM | > 100 µM
10 | CC1(C)C2CC(c3ccncc3)ON2C(C)(C)N1O (stereo not given) | > 100 µM | > 100 µM | > 100 µM | > 100 µM | > 100 µM | > 100 µM | > 100 µM | > 100 µM | > 100 µM | > 100 µM
11 | O=C(NCCO)c1ccc(Cl)cc1 | > 100 µM | > 100 µM | > 100 µM | > 100 µM | > 100 µM | > 100 µM | > 100 µM | > 100 µM | > 100 µM | > 100 µM
12 | O=C1NC(N/N=C\c2ccccc2)=N/C1=C/c1ccc(Cl)cc1 | 43.3 µM | > 100 µM | 62.1 µM | > 100 µM | > 100 µM | 94.7 µM | > 100 µM | 62.7 µM | > 100 µM | 49.6 µM
13 | CC(C)(C)OC(=O)CC(NC(=O)OC(C)(C)C)C(=O)NC(CCCCNC(=O)OCc1ccccc1)C(=O)NC(C)(C)C(=O)NCCC(=O)OCc1ccccc1 (stereo not given) (Boc-D(OtBu)K(Cbz)[Aib][βAla]-OBn; configuration not given here) | > 100 µM | > 100 µM | > 100 µM | > 100 µM | > 100 µM | > 100 µM | > 100 µM | > 100 µM | > 100 µM | > 100 µM
14 | CCN(CC)CCCNc1ccc2nnn3c4ccc(O)cc4c(=O)c1c23 | 22.4 µM | 20.9 µM | 26.4 µM | 39.9 µM | 32 µM | 18.6 µM | 22.1 µM | 19.4 µM | 24.1 µM | 12.9 µM
15 | COc1cc2ccnc3c2c(c1O)N(C)C=C3 | 37.4 µM | > 38.4 µM | 21.7 µM | > 24.7 µM | > 66.2 µM | 36.6 µM | > 86.5 µM | > 64.2 µM | > 62 µM | > 46.8 µM
16 | Cc1ccc2c(c1)OC1Nc3ccccc3C1=C2O (stereo not given) | 89.1 µM | 68.1 µM | > 100 µM | 85 µM | > 100 µM | > 100 µM | 95.9 µM | > 100 µM | > 100 µM | > 100 µM
17 | CCCCN(c1ccccc1)c1ncnc2c1cnn2C | > 100 µM | > 100 µM | 77.7 µM | 99.1 µM | > 100 µM | > 100 µM | > 100 µM | > 100 µM | > 100 µM | > 100 µM
18 | C/C=C/[C@H]1O[C@@](OC)([C@@H](C)[C@H](O)[C@H](C)[C@H]2OC(=O)/C(OC)=C/C(C)=C/[C@@H](C)[C@@H](O)[C@@H](C)[C@@H](O)[C@H](C)C/C(C)=C/C=C/[C@@H]2OC)CC(OC2CC(O)C(OC(N)=O)C(C)O2)[C@@H]1C (stereo not given in full) | 14.1 µM | 0.0486 µM | 0.305 µM | 15.1 µM | 14.2 µM | 22.3 µM | < 0.01 µM | 5.26 µM | 18.8 µM | 17.3 µM
19 | COC(=O)C(C)Sc1nc2cc(Cl)ccc2s1 (stereo not given) | > 100 µM | > 100 µM | > 100 µM | > 100 µM | > 100 µM | > 100 µM | > 100 µM | > 100 µM | > 100 µM | > 100 µM
